Assay results reported in the NIST ThermoML archive (doi:10.1016/j.jct.2017.06.002).

What was measured:
[1] = 100 kPa, Liquid; for viscosity: Concentric cylinders viscometry
[2] = xn = mol fraction of the nth substance listed; conditions: 100 kPa, Liquid, x1 = 1; for viscosity: Concentric cylinders viscometry; for mass density: Vibrating tube method

COCOCOCOCOC [2,4,6,8,10-pentaoxaundecane]
[1]
Conditions	viscosity [mPa·s]
288.15 K	2.207
293.15 K	2.015
298.15 K	1.848
303.15 K	1.703
308.15 K	1.576
313.15 K	1.464

mass density [kg/m3], [1]
Conditions	288.15 K	293.15 K	298.15 K	303.15 K	308.15 K	313.15 K
Buoyancy - hydrostatic balance	–	–	1067.8	–	–	–
Vibrating tube method	1078.8	1073.3	1068.2	1063.4	1059.1	1055.2

COCOCOCOC [2,4,6,8-tetraoxanonane]
[1]
Conditions	viscosity [mPa·s]
288.15 K	1.259
293.15 K	1.166
298.15 K	1.084
303.15 K	1.028
308.15 K	0.9921
313.15 K	0.9521

mass density [kg/m3], [1]
Conditions	288.15 K	293.15 K	298.15 K	303.15 K	308.15 K	313.15 K
Buoyancy - hydrostatic balance	–	–	1023.1	–	–	–
Vibrating tube method	1037.5	1030.2	1023.4	1016.6	1011	1005

COCOCOCOC [2,4,6,8-tetraoxanonane] + COCOCOCOCOC
[2]
Conditions	mass density [kg/m3]	viscosity [mPa·s]
288.15 K	1037.5	1.259
293.15 K	1030.2	1.166
298.15 K	1023.4	1.084
303.15 K	1016.6	1.028
308.15 K	1011	0.9921
313.15 K	1005	0.9521

COCOCOC [2,4,6-trioxaheptane]
[1]
Conditions	viscosity [mPa·s]
288.15 K	0.9255
293.15 K	0.9152
298.15 K	0.9028
303.15 K	0.8885
308.15 K	0.8726
313.15 K	0.8554

mass density [kg/m3], [1]
Conditions	288.15 K	293.15 K	298.15 K	303.15 K	308.15 K	313.15 K
Buoyancy - hydrostatic balance	–	–	989.2	–	–	–
Vibrating tube method	999.4	995.3	989.9	984.3	978.8	974.2

COCOCOC [2,4,6-trioxaheptane] + COCOCOCOC
[2]
Conditions	mass density [kg/m3]	viscosity [mPa·s]
288.15 K	999.4	0.9255
293.15 K	995.3	0.9152
298.15 K	989.9	0.9028
303.15 K	984.3	0.8885
308.15 K	978.8	0.8726
313.15 K	974.2	0.8554

COCOCOC [2,4,6-trioxaheptane] + COCOCOCOCOC
[2]
Conditions	mass density [kg/m3]	viscosity [mPa·s]
288.15 K	999.4	0.9255
293.15 K	995.3	0.9152
298.15 K	989.9	0.9028
303.15 K	984.3	0.8885
308.15 K	978.8	0.8726
313.15 K	974.2	0.8554
